# Experiments:
# Assay type in all cases: cell-based, human
# [1] = system: H1-hESC-derived S3D5 cells; test: Gene expression by qPCR (Taqman Arrays) in S3D5 cells
# Method: (§1) Differentiation: The cultures were differentiated using the following protocol. During Stages 1 through 3 of the protocol, cultures were maintained on planar adherent cultures. […] The following nomenclature, S#D#, specifies exact time during Stages 1 through 3. For example, S1D3 is stage 1 day 3. Briefly, each stage defines differentiation towards definitive endoderm (stage 1), primitive gut tube (stage 2), and intestinal midgut endoderm (stage 3). • a. Stage 1 (3 days): Cells were cultured for one day in the following Stage 1 media:
# For quantification of gene expression at various stages, Caco-2, H1-hESC, S1D3, S2D2, S3D2 and S3D5 cells were harvested, as described in Nature Biotechnology, 2014 (32) 11, 1121-1133. Briefly, gene expression was assessed in cells using custom Taqman® Arrays (Applied Biosystems, Foster City, Calif.); Open Array® (OA) was used for CDX2, FOXA2, SOX2, SOX9, PDX1, ALB, PTF1A, and Taqman® Low Density Array (TLDA) was used for KLF5, HOXC5, and LGR5, with housekeeping gene GAPDH used for both tests. Data were analyzed using Sequence Detection Software (Applied Biosystems, Foster City, Calif.), and normalized using GAPDH as a housekeeping gene to undifferentiated H1-hESC using the ΔΔCt method. Primer details are outlined in Table IV.
# [2] = system: H1-hESC-derived S3D5 cells; test: FACS quantification of protein co-presence in S3D5 cells
# Method: as §1
# Quantification of differentiated cells: For quantification of protein presence co-localization, S3D5 cells were harvested and analyzed by FACS. FACS staining was conducted as described in Nature Biotechnology, 2014 (32) 11, 1121-1133, incorporated herein by reference in its entirety, and using the antibodies listed in Table II. In brief, differentiated cells were incubated in TrypLE™ Express (Life Technologies, Carlsbad, Calif., Catalog No. 12604) for 5-10 minutes at 37° C., released into a single-cell suspension, after which they were washed twice with a staining buffer of PBS containing 0.2% BSA (BD Biosciences, San Jose, Calif., Catalog No. 554657). Intracellular antibody staining was accomplished by utilizing the LIVE/DEAD Violet Fluorescent reactive dye (Life Technologies, Carlsbad, Calif., Catalog No. L34955) at 4° C. for 30 minutes followed by a single wash in cold PBS. Fixing of cells was in 300 μl of Cytofix/Cytoperm Buffer (BD Biosciences, San Jose, Calif., Catalog No. 554723) followed by two washes in Perm/Wash Buffer (BD Biosciences, San Jose, Calif., Catalog No. 554722). Cells were then incubated with the appropriate antibodies at 4° C. for 30 minutes (for unconjugated antibodies) or 1 hour (for conjugated antibodies), and then washed twice prior to analysis on the BD FACS Canto II using BD FACS Diva Software with at least 30,000 events being acquired. Non-viable cells were excluded during FACS analysis, and gating was determined by using isotype antibodies (“IgG”). IgG FACS data is shown as the top panel for each FACS experiment presented. Antibodies were tested for specificity using positive controls, such as Caco-2 cells, or negative controls, such as S1D3 definitive endoderm (“DE”) cells.
# [3] = system: H1-hESC-derived S3D5 cells; test: Cell number characterization using the Nucleocounter NC-100
# Method: A summary of a differentiation method, including the important medium components, growth factors and small molecules that were added to each stage, and key stage-specific markers of the differentiating intestinal midgut endoderm cells (FOXA2; CDX2; KLF5; SOX9; PDX1^LO) is depicted in FIG. 1A. As compared to the neutral pH noted for S2D2 (7.35±0.04), cells were exposed to slightly acidic conditions in the BLAR medium, during the entirety of stage 3 (pH; S3D1, 6.98±0.05; S3D2, 7.02±0.04; S3D5, 7.18±0.03) (FIG. 1B), and as a result of lower sodium bicarbonate levels in BLAR medium. The pH of the culture can range from about 6.8 to 7.2 during the five days of stage 3. FIG. 1C depicts representative phase-contrast images of a S3D5 monolayer (left), and human epithelial colon adenocarcinoma cell line (“Caco-2”) (right), which was used as a benchmark for characterization of differentiation. A uniform morphology at S3D5 was observed.
# [4] = S3D5, compared to pancreas-biased S4D3 cells
substance,measurement,setting,value
"BMP4: Bone morphogenic protein-4, 50 ng/ml with 1 μM retinoic acid in BLAR medium during Stage 3",ALB gene expression,[1]; S3D5,not observed
same,HOXA13 gene expression,[1]; S3D5,not induced
same,HOXC5 gene expression,[1]; S3D5,strongly induced
same,KLF5 gene expression,[1]; S3D5,upregulated
same,LGR5 gene expression,[1]; S3D5,not induced
same,SOX2 gene expression,[1]; S3D5,below levels seen in hESC and Caco-2 cells
same,SOX9 gene expression,"[1]; S3D5, compared to Caco-2 cells",Strong induction
same,PDX1 gene expression,[1]; [4],induced at low levels
same,PTF1A gene expression,[1]; [4],not induced
same,CDX2 gene expression,[1]; during Stage 3,induced
same,FOXA2 gene expression,[1]; during Stage 3,maintained
same,S3D5 cells exhibiting SOX2 and CDX2 co-presence,[2],1.45±0.15%
same,percent of cells co-positive for both CDX2 and PDX1,[2],69.4±14.2%
same,percent of cells co-present for both CDX2 and SOX9,[2],98.7±0.25%
same,percent of S3D5 cells co-present for both CDX2 and FOXA2 protein,[2]; Stage 3 in BLAR medium with 1 μM retinoic acid and 50 ng/ml BMP,90.0±5.85%
same,percentage KI67-protein positive cells of total S3D5 cells,[2]; total cells >90% CDX2-positive,16.8±3.12%
same,S3D5 cells obtained from one hESC,[3],4.56±2.60

# From US10420803B2, “Differentiation of pluripotent stem cells to intestinal midgut endoderm cells” (Janssen Biotech, Inc., priority 2016, dated 2019)
